Each cell line was assayed with C(C(=O)C(=O)O)Br [Bromopyruvate] + O=C(CCCCCCC(=O)Nc1ccccc1)NO [Vorinostat] (partner 1 µM) (assay: relative viability (nuclei count vs DMSO), 5 days (fraction); higher = more cells survive). Conditions: first compound 1 µM.
Outline: (§1)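 Relative viability was taken as the ratio of nuclei in treated wells to nuclei in vehicle wells. Lung cancer cell lines in 1536-well plates received compounds by pin tool one day after seeding, either one drug alone or a fixed anchor-drug dose plus five library-drug doses (not always all listed) in √10 steps. Nuclei were counted on 4× images after 5 days of treatment, and values are medians of duplicate plates.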

First: NCI-H2347
Second: NCI-H650
The relative viability of the first is higher: 0.645 for the first, 0.438 for the second.

Compared with CAL-12T, NCI-H1651 is lower in relative viability: 0.696 for the first, 0.612 for the second.

Going from EPLC-272H to NCI-H23, the relative viability rises from 0.36 to 0.569.

Going from NCI-H1355 to NCI-H322M, the relative viability rises from 0.668 to 1.04.

First: NCI-H1437
Second: NCI-H1755
The relative viability of the first is higher: 0.918 for the first, 0.862 for the second.

Going from NCI-H2085 to HCC-15, the relative viability rises from 0.769 to 0.792.

Compared with NCI-H1793, PC-3 [JPC-3] is higher in relative viability: 0.792 for the first, 1.1 for the second.

Compared with EKVX, LC-2-ad is higher in relative viability: 0.668 for the first, 0.706 for the second.

Compared with NCI-H1944, NCI-H1975 is higher in relative viability: 0.592 for the first, 0.741 for the second.

Going from SK-LU-1 to ABC-1, the relative viability rises from 0.744 to 1.27.

Same assay, conditions: first compound 3.162 µM

First: LCLC-97TM1
Second: NCI-H2023
The relative viability of the first is lower: 0.671 for the first, 0.687 for the second.

First: A-427
Second: NCI-H460
The relative viability of the first is higher: 0.899 for the first, 0.71 for the second.

First: NCI-H727
Second: NCI-H1734
The relative viability of the first is higher: 1.26 for the first, 0.86 for the second.

First: NCI-H520
Second: NCI-H2405
The relative viability of the first is lower: 0.745 for the first, 1.01 for the second.

Going from SW 1573 to NCI-H1395, the relative viability falls from 0.861 to 0.791.

Going from 201T to NCI-H1915, the relative viability falls from 1.01 to 0.495.

Going from HCC-827 to LXF-289, the relative viability falls from 0.982 to 0.796.

Going from NCI-H2347 to NCI-H650, the relative viability falls from 0.541 to 0.487.

Going from CAL-12T to NCI-H1651, the relative viability falls from 0.769 to 0.573.

First: EPLC-272H
Second: NCI-H23
The relative viability of the first is lower: 0.38 for the first, 0.639 for the second.

First: NCI-H1355
Second: NCI-H322M
The relative viability of the first is lower: 0.641 for the first, 0.844 for the second.

First: NCI-H1437
Second: NCI-H1755
The relative viability of the first is lower: 0.672 for the first, 0.819 for the second.

First: NCI-H2085
Second: HCC-15
The relative viability of the first is lower: 0.81 for the first, 0.838 for the second.

First: NCI-H1793
Second: EKVX
The relative viability of the first is higher: 0.914 for the first, 0.685 for the second.

First: LC-2-ad
Second: NCI-H1944
The relative viability of the first is lower: 0.631 for the first, 0.647 for the second.

Compared with NCI-H1975, SK-LU-1 is higher in relative viability: 0.761 for the first, 0.81 for the second.

Same assay, conditions: first compound 10 µM

Compared with LCLC-97TM1, NCI-H2023 is lower in relative viability: 0.887 for the first, 0.619 for the second.

First: A-427
Second: NCI-H460
The relative viability of the first is higher: 0.841 for the first, 0.599 for the second.

Compared with NCI-H727, NCI-H1734 is lower in relative viability: 1.24 for the first, 0.858 for the second.

Going from NCI-H520 to NCI-H2405, the relative viability rises from 0.706 to 0.814.

First: SW 1573
Second: NCI-H1395
The relative viability of the first is higher: 0.924 for the first, 0.649 for the second.

First: 201T
Second: NCI-H1915
The relative viability of the first is higher: 0.984 for the first, 0.529 for the second.

First: HCC-827
Second: LXF-289
The relative viability of the first is higher: 0.968 for the first, 0.714 for the second.

Going from NCI-H2347 to NCI-H650, the relative viability falls from 0.542 to 0.411.

Going from CAL-12T to NCI-H1651, the relative viability falls from 0.762 to 0.578.

Going from EPLC-272H to NCI-H23, the relative viability rises from 0.359 to 0.64.

Compared with NCI-H1355, NCI-H322M is higher in relative viability: 0.646 for the first, 0.739 for the second.

Compared with NCI-H1437, NCI-H1755 is lower in relative viability: 0.74 for the first, 0.682 for the second.

Compared with NCI-H2085, HCC-15 is lower in relative viability: 0.798 for the first, 0.782 for the second.

First: NCI-H1793
Second: PC-3 [JPC-3]
The relative viability of the first is higher: 0.794 for the first, 0.536 for the second.

First: EKVX
Second: LC-2-ad
The relative viability of the first is lower: 0.718 for the first, 0.72 for the second.

Going from NCI-H1944 to NCI-H1975, the relative viability rises from 0.582 to 0.687.

Work on SK-LU-1 yielded a relative viability of 0.728.

Same assay, conditions: first compound 31.62 µM

Going from LCLC-97TM1 to NCI-H2023, the relative viability falls from 0.601 to 0.464.

Going from A-427 to NCI-H460, the relative viability falls from 0.767 to 0.524.

First: NCI-H727
Second: NCI-H1734
The relative viability of the first is higher: 0.886 for the first, 0.736 for the second.

Compared with NCI-H520, SW 1573 is lower in relative viability: 0.731 for the first, 0.478 for the second.

Compared with NCI-H1395, 201T is higher in relative viability: 0.683 for the first, 0.912 for the second.

Compared with NCI-H1915, HCC-827 is higher in relative viability: 0.462 for the first, 0.886 for the second.

First: LXF-289
Second: NCI-H2347
The relative viability of the first is higher: 0.81 for the first, 0.495 for the second.

Going from NCI-H650 to CAL-12T, the relative viability rises from 0.441 to 0.705.

Compared with NCI-H1651, EPLC-272H is lower in relative viability: 0.466 for the first, 0.44 for the second.

Compared with NCI-H23, NCI-H1355 is higher in relative viability: 0.538 for the first, 0.607 for the second.

First: NCI-H322M
Second: NCI-H1437
The relative viability of the first is higher: 0.8 for the first, 0.694 for the second.

First: NCI-H1755
Second: NCI-H2085
The relative viability of the first is higher: 0.768 for the first, 0.764 for the second.

Compared with HCC-15, NCI-H1793 is lower in relative viability: 0.818 for the first, 0.727 for the second.

First: EKVX
Second: LC-2-ad
The relative viability of the first is higher: 0.729 for the first, 0.645 for the second.

First: NCI-H1944
Second: NCI-H1975
The relative viability of the first is lower: 0.568 for the first, 0.675 for the second.

With SK-LU-1 the relative viability was 0.632.

Same assay, conditions: first compound 100 µM

Compared with LCLC-97TM1, NCI-H2023 is lower in relative viability: 0.655 for the first, 0.615 for the second.

Compared with A-427, NCI-H460 is lower in relative viability: 0.835 for the first, 0.565 for the second.

Compared with NCI-H727, NCI-H1734 is lower in relative viability: 1.23 for the first, 0.724 for the second.

Compared with NCI-H520, NCI-H2405 is higher in relative viability: 0.469 for the first, 0.742 for the second.

Compared with SW 1573, NCI-H1395 is higher in relative viability: 0.0513 for the first, 0.681 for the second.

Going from 201T to NCI-H1915, the relative viability falls from 0.971 to 0.423.

Compared with HCC-827, LXF-289 is lower in relative viability: 0.741 for the first, 0.677 for the second.

First: NCI-H2347
Second: NCI-H650
The relative viability of the first is higher: 0.473 for the first, 0.392 for the second.

Going from CAL-12T to NCI-H1651, the relative viability falls from 0.489 to 0.345.

Compared with EPLC-272H, NCI-H23 is higher in relative viability: 0.347 for the first, 0.39 for the second.

Compared with NCI-H1355, NCI-H322M is higher in relative viability: 0.606 for the first, 0.88 for the second.

Compared with NCI-H1437, NCI-H1755 is higher in relative viability: 0.529 for the first, 0.651 for the second.

Going from NCI-H2085 to HCC-15, the relative viability falls from 0.862 to 0.686.

Compared with NCI-H1793, PC-3 [JPC-3] is higher in relative viability: 0.634 for the first, 0.764 for the second.

First: EKVX
Second: LC-2-ad
The relative viability of the first is higher: 0.713 for the first, 0.575 for the second.

Going from NCI-H1944 to NCI-H1975, the relative viability falls from 0.654 to 0.582.

Compared with SK-LU-1, ABC-1 is lower in relative viability: 0.713 for the first, 0.612 for the second.

The cell lines below were run with C(C(=O)C(=O)O)Br [Bromopyruvate] + Cc1nc(Nc2ncc(C(=O)Nc3c(C)cccc3Cl)s2)cc(N2CCN(CCO)CC2)n1 [Dasatinib] (partner 0.075 µM) in the same assay as above. Conditions: first compound 1 µM.
Outline: as §1

Going from LCLC-97TM1 to NCI-H2023, the relative viability falls from 0.74 to 0.398.

First: A-427
Second: NCI-H460
The relative viability of the first is higher: 0.733 for the first, 0.523 for the second.

Compared with NCI-H727, NCI-H1734 is lower in relative viability: 0.474 for the first, 0.462 for the second.

Going from NCI-H520 to NCI-H2405, the relative viability rises from 0.216 to 0.242.

First: SW 1573
Second: NCI-H1395
The relative viability of the first is higher: 0.598 for the first, 0.412 for the second.

Source: the supplement of paper PMC10307832
